Measurements as given in BindingDB's records for doi:10.1016/s0960-894x(03)00628-0 (Wyeth Research, 2003).

Experiment: Inhibition of Src protein tyrosine kinase

Work on `COCCOc1cc2nc3ncnc(Nc4cc(OC)c(Cl)cc4Cl)c3cc2cc1OC` [(2,4-Dichloro-5-methoxy-phenyl)-[7-methoxy-8-(2-methoxy-ethoxy)-pyrimido[4,5-b]quinolin-4-yl]-amine] yielded an IC50 of over 10 µM.
